{"source": "paper PMC9107766", "about": "“Inhibitory effect of lignin on the hydrolysis of xylan by thermophilic and thermolabile GH11 xylanases” (Biotechnology for Biofuels and Bioproducts, 2022)", "key": {"[1]": {"molecular_target": "T1, TrXyn2 (Trichoderma reesei, UniProt P36217)", "T1 construct": "gene xyn2; natural single-domain GH11 enzyme, homologously produced and purified from T. reesei culture supernatant", "T1 sequence (P36217 34-223)": "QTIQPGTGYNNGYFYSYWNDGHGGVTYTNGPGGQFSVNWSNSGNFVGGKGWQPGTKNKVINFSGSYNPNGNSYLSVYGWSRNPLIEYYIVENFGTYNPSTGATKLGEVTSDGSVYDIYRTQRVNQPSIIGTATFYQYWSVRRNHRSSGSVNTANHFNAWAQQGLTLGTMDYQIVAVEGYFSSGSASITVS", "assay": "birch wood xylan hydrolysis yield, reducing sugars by PAHBAH", "format": "biochemical", "conditions": "tested at 10, 100 and 1000 µg/ml; 1% xylan, 50 mM Na-citrate pH 5, 40 or 50 °C"}, "[2]": {"molecular_target": "T2, TrXyn1 (Trichoderma reesei, UniProt P36218)", "T2 construct": "gene xyn1; natural single-domain GH11 enzyme, homologously produced and purified from T. reesei culture supernatant", "T2 sequence (P36218 52-229)": "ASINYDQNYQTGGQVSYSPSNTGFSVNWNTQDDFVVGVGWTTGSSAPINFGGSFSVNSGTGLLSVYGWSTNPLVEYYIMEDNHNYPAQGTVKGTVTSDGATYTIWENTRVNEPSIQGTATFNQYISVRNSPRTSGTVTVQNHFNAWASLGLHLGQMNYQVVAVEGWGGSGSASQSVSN", "assay": "birch wood xylan hydrolysis yield, reducing sugars by PAHBAH", "format": "biochemical", "conditions": "tested at 10, 100 and 1000 µg/ml; 1% xylan, 50 mM Na-citrate pH 5, 40 or 50 °C; concentration of the printed value not given"}}}
{"compound": "COc1cc(C=O)cc(OC)c1O", "note": "[syringaldehyde]", "values": [{"measurement": "reduction in hydrolysis yield", "setting": "[1]", "value": "only syringaldehyde showed a clear inhibitory effect on the hydrolysis for all the tested xylanases"}, {"measurement": "% reduction in the hydrolysis yield", "setting": "[2]", "value": 50, "unit": "%"}]}
